# Tests used:
# [1] = test system: sleep after injection of Nembutal; experiment: Time of inducing the sleep after injection of Nembutal; format: in vivo; conditions: even at low dosages
# [2] = test system: Hexobarbital-induced sleeping time; experiment: Hexobarbital-induced sleeping time; format: in vivo; conditions: rodents, high dosages
# femoral blood flow = experiment: Femoral blood flow, anaesthetized dogs; format: in vivo, dog; conditions: 100 mg/kg perorally
# Protocol: Femoral blood flow was measured with an electromagnetic flowmeter (Statham).
# [3] = test system: carrageenin-induced paw oedema; conditions: rat, thesis (Kocialski); cited from earlier work
# brain blood circulation = experiment: Effect on the brain blood circulation and on the consumption of oxygen and glucose by the brain, anaesthetized dogs; format: in vivo, dog; design: O2 cap. = amount of oxygen supplied to the brain tissues / art. QO2 / QO2: unit not given here; conditions: 100 mg/kg perorally
# From the text: Effect of tetrahydroalstonine on the brain blood circulation and on the consumption of oxygen and of glucose by the brain.
# On arterial and venous blood sample the concentration of glucose has been determined enzymatically according to the method of hexokinase (C. Hennon and co-workers).
# The determination of the pressure of oxygene (PO2) has been carried out with a polarographic analyser and that of carbonic anhydride (PCO2) in the arterial or venous brain blood, using a Duo-Matic electrometer IL 123.
# in vivo = conditions: mouse, po
# Protocol: (§1) The search of an acute toxicity has been carried out on lots of mice (Rockland strain) weighing from […]. The mice received orally increasing dosis of tetrahydroalstonine suspended in an aqueous solvent.
# (§2) The animals are kept under survey for 7 days and the deaths are recorded. The average lethal dosis has been graphically calculated according to the method of Wilcoxon and Litchfield. A lot of mice received only the solvent as controls.
# mice (Rockland strain) = experiment: Acute toxicity, oral; conditions: mouse, in vivo
# Protocol: as §1, §2
# [4] = French Pat. 1.397.537; cited from earlier work
compound,measurement,setting,value
COC(=O)C1=CO[C@@H](C)[C@@H]2CN3CCc4c([nH]c5ccccc45)[C@@H]3C[C@H]12 [Tetrahydroalstonine],time of inducing the sleep after injection of Nembutal,[1],increase
same,Hexobarbital-induced sleeping time,[2],increased
same,vasodilatory effect on the femoral blood flow,femoral blood flow,clear
same,Femoral vein flow,femoral blood flow; 45 minutes (Table I),"38,0"
same,Femoral vein flow,femoral blood flow; 67 minutes (Table I),"38,7"
same,Femoral vein flow,femoral blood flow; 90 minutes (Table I),"37,1"
same,Femoral vein flow,femoral blood flow; 112 minutes (Table I),"34,5"
same,Femoral vein flow,femoral blood flow; 135 minutes (Table I),"27,7"
same,effect on carrageenin-induced paw oedema,[3],negative
same,concentration of oxygen in the brain capillars,brain blood circulation,increased
same,consumption of glucose by the brain,brain blood circulation,increase
same,consumption of oxygen per minute,brain blood circulation,increased
same,difference in concentration between arterial and venous oxygen,brain blood circulation,increased
same,partial pressure in brain venous oxygen (PO2 VC),brain blood circulation,decrease
same,Cerebral flow,brain blood circulation; 45 minutes (Table I),"89,8 ml/mn"
same,Concentration in capillary oxygen,brain blood circulation; 45 minutes (Table I),"9,3"
same,Concentration in oxygen/mn,brain blood circulation; 45 minutes (Table I),"12,8"
same,Consumption in glucose/mn,brain blood circulation; 45 minutes (Table I),"7,1"
same,G/O = consumption in glucose per mn / concentration in oxygen,brain blood circulation; 45 minutes (Table I),"0,6"
same,QO2,brain blood circulation; 45 minutes (Table I),"14,3"
same,Cerebral flow,brain blood circulation; 67 minutes (Table I),"92,4 ml/mn"
same,Concentration in capillary oxygen,brain blood circulation; 67 minutes (Table I),"8,7"
same,Concentration in oxygen/mn,brain blood circulation; 67 minutes (Table I),"12,4"
same,Consumption in glucose/mn,brain blood circulation; 67 minutes (Table I),"10,7"
same,G/O = consumption in glucose per mn / concentration in oxygen,brain blood circulation; 67 minutes (Table I),"0,9"
same,QO2,brain blood circulation; 67 minutes (Table I),"13,1"
same,Cerebral flow,brain blood circulation; 90 minutes (Table I),"95,8 ml/mn"
same,Concentration in capillary oxygen,brain blood circulation; 90 minutes (Table I),"8,5"
same,Concentration in oxygen/mn,brain blood circulation; 90 minutes (Table I),"12,4"
same,Consumption in glucose/mn,brain blood circulation; 90 minutes (Table I),"11,3"
same,G/O = consumption in glucose per mn / concentration in oxygen,brain blood circulation; 90 minutes (Table I),"1,0"
same,QO2,brain blood circulation; 90 minutes (Table I),"12,6"
same,Cerebral flow,brain blood circulation; 112 minutes (Table I),"90,6 ml/mn"
same,Concentration in capillary oxygen,brain blood circulation; 112 minutes (Table I),"8,4"
same,Concentration in oxygen/mn,brain blood circulation; 112 minutes (Table I),"11,5"
same,Consumption in glucose/mn,brain blood circulation; 112 minutes (Table I),"12,1"
same,G/O = consumption in glucose per mn / concentration in oxygen,brain blood circulation; 112 minutes (Table I),"1,1"
same,QO2,brain blood circulation; 112 minutes (Table I),"12,4"
same,Cerebral flow,brain blood circulation; 135 minutes (Table I),"84,8 ml/mn"
same,Concentration in capillary oxygen,brain blood circulation; 135 minutes (Table I),"8,5"
same,Concentration in oxygen/mn,brain blood circulation; 135 minutes (Table I),"11,4"
same,Consumption in glucose/mn,brain blood circulation; 135 minutes (Table I),"10,9"
same,G/O = consumption in glucose per mn / concentration in oxygen,brain blood circulation; 135 minutes (Table I),"1,2"
same,QO2,brain blood circulation; 135 minutes (Table I),"12,9"
same,CE p. 100 glucose,brain blood circulation; +45 min. (Table II),"8,22 p. 100"
same,DC = Cerebral blood flow,brain blood circulation; +45 min. (Table II),"90,0 ml/mn"
same,G/O,brain blood circulation; +45 min. (Table II),"1,08"
same,O2 /min.,brain blood circulation; +45 min. (Table II),"6,14"
same,O2 cap. = amount of oxygen supplied to the brain tissues,brain blood circulation; +45 min. (Table II),"5,05"
same,PO2 vc = partial pressure of venous oxygen in the brain,brain blood circulation; +45 min. (Table II),"28,50"
same,art. QO2,brain blood circulation; +45 min. (Table II),"14,16"
same,art. pH,brain blood circulation; +45 min. (Table II),"7,39"
same,arterial Q gluc.,brain blood circulation; +45 min. (Table II),900 mg
same,consumption in Gluc./min.,brain blood circulation; +45 min. (Table II),"6,66"
same,ΔH^+/ΔQO2,brain blood circulation; +45 min. (Table II),"-4,44"
same,ΔPCO2/ΔQO2,brain blood circulation; +45 min. (Table II),"109,97"
same,ΔQO2,brain blood circulation; +45 min. (Table II),"+6,82"
same,CE p. 100 glucose,brain blood circulation; +67 min. (Table II),"12,73 p. 100"
same,DC = Cerebral blood flow,brain blood circulation; +67 min. (Table II),"99,0 ml/mn"
same,G/O,brain blood circulation; +67 min. (Table II),"1,38"
same,O2 /min.,brain blood circulation; +67 min. (Table II),"8,40"
same,O2 cap. = amount of oxygen supplied to the brain tissues,brain blood circulation; +67 min. (Table II),"5,95"
same,PO2 vc = partial pressure of venous oxygen in the brain,brain blood circulation; +67 min. (Table II),"24,25"
same,art. QO2,brain blood circulation; +67 min. (Table II),"14,50"
same,art. pH,brain blood circulation; +67 min. (Table II),"7,425"
same,arterial Q gluc.,brain blood circulation; +67 min. (Table II),919 mg
same,consumption in Gluc./min.,brain blood circulation; +67 min. (Table II),"11,58"
same,ΔH^+/ΔQO2,brain blood circulation; +67 min. (Table II),"-6,75"
same,ΔPCO2/ΔQO2,brain blood circulation; +67 min. (Table II),"114,84"
same,ΔQO2,brain blood circulation; +67 min. (Table II),"+8,49"
same,CE p. 100 glucose,brain blood circulation; +90 min. (Table II),"11,70 p. 100"
same,DC = Cerebral blood flow,brain blood circulation; +90 min. (Table II),"112,5 ml/mn"
same,G/O,brain blood circulation; +90 min. (Table II),"1,20"
same,O2 /min.,brain blood circulation; +90 min. (Table II),"10,38"
same,O2 cap. = amount of oxygen supplied to the brain tissues,brain blood circulation; +90 min. (Table II),"6,07"
same,PO2 vc = partial pressure of venous oxygen in the brain,brain blood circulation; +90 min. (Table II),"21,75"
same,art. QO2,brain blood circulation; +90 min. (Table II),"14,25"
same,art. pH,brain blood circulation; +90 min. (Table II),"7,455"
same,arterial Q gluc.,brain blood circulation; +90 min. (Table II),949 mg
same,consumption in Gluc./min.,brain blood circulation; +90 min. (Table II),"12,49"
same,ΔH^+/ΔQO2,brain blood circulation; +90 min. (Table II),"-7,96"
same,ΔPCO2/ΔQO2,brain blood circulation; +90 min. (Table II),"111,05"
same,ΔQO2,brain blood circulation; +90 min. (Table II),"+9,23"
same,CE p. 100 glucose,brain blood circulation; +112 min. (Table II),"12,24 p. 100"
same,DC = Cerebral blood flow,brain blood circulation; +112 min. (Table II),"112,5 ml/mn"
same,G/O,brain blood circulation; +112 min. (Table II),"1,37"
same,O2 /min.,brain blood circulation; +112 min. (Table II),"9,74"
same,O2 cap. = amount of oxygen supplied to the brain tissues,brain blood circulation; +112 min. (Table II),"5,88"
same,PO2 vc = partial pressure of venous oxygen in the brain,brain blood circulation; +112 min. (Table II),"23,0"
same,art. QO2,brain blood circulation; +112 min. (Table II),"13,95"
same,art. pH,brain blood circulation; +112 min. (Table II),"7,44"
same,arterial Q gluc.,brain blood circulation; +112 min. (Table II),972 mg
same,consumption in Gluc./min.,brain blood circulation; +112 min. (Table II),"13,39"
same,ΔH^+/ΔQO2,brain blood circulation; +112 min. (Table II),"-7,39"
same,ΔPCO2/ΔQO2,brain blood circulation; +112 min. (Table II),"103,93"
same,ΔQO2,brain blood circulation; +112 min. (Table II),"+8,66"
same,CE p. 100 glucose,brain blood circulation; +135 min. (Table II),"12,84 p. 100"
same,DC = Cerebral blood flow,brain blood circulation; +135 min. (Table II),"92,0 ml/mn"
same,G/O,brain blood circulation; +135 min. (Table II),"1,28"
same,O2 /min.,brain blood circulation; +135 min. (Table II),"9,22"
same,O2 cap. = amount of oxygen supplied to the brain tissues,brain blood circulation; +135 min. (Table II),"6,33"
same,PO2 vc = partial pressure of venous oxygen in the brain,brain blood circulation; +135 min. (Table II),"19,75"
same,art. QO2,brain blood circulation; +135 min. (Table II),"14,18"
same,art. pH,brain blood circulation; +135 min. (Table II),"7,48"
same,arterial Q gluc.,brain blood circulation; +135 min. (Table II),997 mg
same,consumption in Gluc./min.,brain blood circulation; +135 min. (Table II),"11,78"
same,ΔH^+/ΔQO2,brain blood circulation; +135 min. (Table II),"-8,75"
same,ΔPCO2/ΔQO2,brain blood circulation; +135 min. (Table II),"129,74"
same,ΔQO2,brain blood circulation; +135 min. (Table II),"+10,02"
same,blood flow,brain blood circulation; conclusion,noticeable and extended over a large period of time increase
same,brain metabolism,brain blood circulation; conclusion,significant improvement
same,LD50 at 168 h,in vivo,> 3000 mg/kg
same,toxicity,mice (Rockland strain),practically devoid of toxic effect
same,adrenolytic activity,[4],adrenolytic agent

# Reference: patent US3969521A, “Pharmaceutical compositions containing tetrahydroalstonine and method for treating circulation disorders” (Science Union et Cie, Societe Francaise de Recherche Medical, priority 1974, dated 1976)
